Assay results published in the NIST ThermoML archive (doi:10.1021/je400803f).

Test: xn = mol fraction of the nth substance listed
Conditions: 101 kPa, Liquid, Vibrating tube method

CCCC[N+]1(C)CCCC1.FC(F)(F)C(F)(F)[P-](F)(F)(F)(C(F)(F)C(F)(F)F)C(F)(F)C(F)(F)F + CC(=O)N(C)C
mass density [kg/m3]
Conditions	293.15 K	298.15 K	303.15 K	308.15 K	313.15 K	318.15 K	323.15 K
x1 = 0.0182	983.51	978.8	974.05	969.23	964.38	959.48	954.43
x1 = 0.0658	1076.12	1071.23	1066.29	1061.3	1056.27	1051.2	1046.01
x1 = 0.099	1128.83	1123.84	1118.81	1113.75	1108.63	1103.46	1098.22
x1 = 0.1925	1243.41	1238.24	1233.05	1227.86	1222.59	1217.27	1211.86
x1 = 0.2995	1334.81	1329.56	1324.29	1318.96	1313.61	1308.22	1302.76
x1 = 0.4032	1399.72	1394.36	1389.05	1383.7	1378.3	1372.86	1367.34
x1 = 0.5012	1446.97	1441.77	1436.59	1431.01	1425.38	1420.2	1414.53
x1 = 0.6048	1487.12	1482	1476.86	1470.97	1465.48	1460.22	1454.65
x1 = 0.7078	1520.04	1514.92	1509.86	1504.04	1498.52	1492.71	1487.58
x1 = 0.806	1546.68	1541.65	1536.23	1530.12	1524.91	1519.13	1513.85
x1 = 0.8469	1556.58	1551.46	1546.01	1539.99	1534.65	1528.99	1523.64
x1 = 0.9176	1572.41	1567.01	1561.51	1555.89	1550.24	1544.79	1539.24

CCCCN(C=O)CCCC [N,N-dibutylformamide] + CCCC[N+]1(C)CCCC1.FC(F)(F)C(F)(F)[P-](F)(F)(F)(C(F)(F)C(F)(F)F)C(F)(F)C(F)(F)F
mass density [kg/m3]
Conditions	293.15 K	298.15 K	303.15 K	308.15 K	313.15 K	318.15 K	323.15 K
x2 = 0.0351	928.01	923.97	919.87	915.81	911.67	907.43	903.16
x2 = 0.0697	972.58	968.41	964.18	960.06	955.82	951.45	947.14
x2 = 0.0998	1008.79	1004.57	1000.33	996.06	991.74	987.31	982.93
x2 = 0.1498	1064.17	1059.81	1055.39	1051.03	1046.54	1042.09	1037.62
x2 = 0.1994	1114.29	1109.89	1105.41	1100.9	1096.39	1091.73	1087.01
x2 = 0.2999	1204.19	1199.58	1194.89	1190.17	1185.45	1180.61	1175.67
x2 = 0.4003	1281.29	1276.52	1271.65	1266.78	1261.89	1256.88	1251.71
x2 = 0.499	1347.44	1342.55	1337.52	1332.49	1327.52	1322.34	1317.03
x2 = 0.5993	1406.59	1401.54	1396.37	1391.2	1386.12	1380.87	1375.47
x2 = 0.6799	1449.07	1443.87	1438.69	1433.45	1428.23	1422.89	1417.48
x2 = 0.7754	1494.51	1489.34	1483.96	1478.61	1473.39	1467.94	1462.42
x2 = 0.8021	1506.51	1501.2	1495.89	1490.51	1485.21	1479.75	1474.28
x2 = 0.9011	1548.52	1543.24	1537.81	1532.31	1526.89	1521.4	1515.91
x2 = 0.949	1568.08	1562.74	1557.33	1551.79	1546.31	1540.77	1535.23
